Results from patent US20260015359A1, “2-(1,8-DIETHYL-1,3,4,9-TETRAHYDROPYRANO[3,4-B]INDOL-1-YL)-1-(PIPERIDIN-1-YL)ETHAN-1-ONE ETODOLAC DERIVATIVE AS EUKARYOTIC ELONGATION FACTOR 2 KINASE (EEF2K) INHIBITOR FOR TARGETED CANCER THERAPY” (BAHCESEHIR UNIVERSITESI, priority 2023, published 2026).

How the values were obtained:
eEF2K [1] = biological target: T1, eEF2K (Homo sapiens, UniProt O00418); assay: Western blot analysis of eEF2K activity (p-EF2 Thr56) in MDA-MB-231 cells; format: cell-based; settings: for eEF2K inhibition potential: western blot, 2.5 to 20 micromolar
T1 sequence (O00418 1-725): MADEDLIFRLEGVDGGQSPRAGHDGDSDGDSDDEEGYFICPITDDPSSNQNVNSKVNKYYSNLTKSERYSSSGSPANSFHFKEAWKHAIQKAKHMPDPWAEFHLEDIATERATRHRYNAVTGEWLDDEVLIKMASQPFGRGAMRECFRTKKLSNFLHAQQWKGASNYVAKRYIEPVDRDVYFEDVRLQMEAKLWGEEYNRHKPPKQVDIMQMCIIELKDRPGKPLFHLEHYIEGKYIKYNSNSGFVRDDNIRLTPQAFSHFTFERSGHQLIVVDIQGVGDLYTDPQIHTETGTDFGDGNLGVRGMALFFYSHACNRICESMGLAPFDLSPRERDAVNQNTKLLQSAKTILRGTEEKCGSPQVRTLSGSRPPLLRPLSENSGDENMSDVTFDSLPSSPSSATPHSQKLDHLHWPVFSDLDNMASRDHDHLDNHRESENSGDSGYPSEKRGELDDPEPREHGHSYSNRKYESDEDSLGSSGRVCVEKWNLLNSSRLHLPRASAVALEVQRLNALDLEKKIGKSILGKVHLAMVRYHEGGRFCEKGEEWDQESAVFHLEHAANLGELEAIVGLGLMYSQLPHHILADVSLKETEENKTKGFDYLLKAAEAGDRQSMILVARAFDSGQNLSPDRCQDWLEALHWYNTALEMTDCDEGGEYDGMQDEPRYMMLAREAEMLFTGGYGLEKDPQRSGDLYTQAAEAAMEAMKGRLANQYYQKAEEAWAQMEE
Method: MeOH: distilled water by volume (%) (70:30) was used as the mobile phase for HPLC analysis for the inventive compound and the flow rate was set to 1 mL min^−1. Triple negative breast cancer (TNBC) cell lines (ER-, PR- and HER2-) MDA-MB-231 cells were purchased from the American Type Culture Collection (ATCC) (Manassas, VA, USA). MDA-MB-231 cells were cultured in Dulbecco's modified Eagle's medium (DMEM)/F12 supplemented with 10% FBS (Fetal Bovine Serum) and 100 U mL^−1 penicillin and streptomycin. Specific antibodies (p-EF2 (Thr56) (2331S), eEF2 (2332S), eEF2K (3692S) and GAPDH (5174S)) were purchased from Cell Signaling Technology (CST).
Western blot analysis was carried out according to previously reported studies to evaluate the eEF2K inhibition activity for the synthesized compounds. The synthesized compound was applied to MDA-MB-231 cells in the range of various concentrations from 2.5 to 20 micromolar for 2 h treatment. The expression levels of p-EF2 (Thr56) inhibition and eEF2K activity were determined by using related antibodies such as p-EF2 (Thr56), eEF2 and eEF2K. Glyceraldehyde 3-phosphate dehydrogenase (GAPDH) was used as a loading control.
To determine the effects of the synthesized compounds in inhibiting eEF2K activity in TNBC, MDA-MB-231 cells, we performed western blot analysis at concentrations ranging from 2.5 micromolar to 20 micromolar in a dose-dependent manner. eEF2K inhibition was detected by decreased phosphorylation levels of EF2 (p-EF2-Thr-56), a direct downstream substrate of the enzyme.

eEF2K [2] = biological target: T1, eEF2K; settings: literature; cited from earlier work
cancer cells = settings: literature; cited from earlier work

Row | eEF2K inhibition potential (eEF2K [1]) | Compound | eEF2K inhibition (reported) (eEF2K [2]) | other results
1 | high inhibition potential | CCc1cccc2c3c([nH]c12)C(CC)(CC(=O)N1CCCCC1)OCC3 (centres unmarked) [Inventive compound, 2-(1,8-diethyl-1,3,4,9-tetrahydropyrano [3,4-b]indol-1-yl)-1-(piperidin-1-yl) ethan-1-one] | – | eEF2K inhibition (reduced levels of p-EF2) (eEF2K [1]; 2.5 micromolar, compared to etodolac (EC)): marked inhibition; inhibition of phospho-eEF2 (Thr56) (eEF2K [1]; 20 micromolar, 2 hours treatment): highest inhibition
2 | – | Cc1cc(C=C2C(=O)C=CC2=O)cc(C)c1O [TX1918] | did not show significant eEF2K inhibition | concentration reported to inhibit eEF2K (eEF2K [2]): 10 µM
3 | – | CCCCCCCCCCCCCCCCn1cc[n+](Cc2ccccc2)c1C.[I-] [NH125] | does not inhibit EF2K | –
4 | – | CCn1c(=O)c2cc(C(N)=O)c(N)nc2n(C2CC2)c1=O [A484954] | – | dose showing inhibition effect in cancer cells (cancer cells): 75 µM
5 | did not show any inhibition potential | CCc1cccc2c3c([nH]c12)C(CC)(CC(=O)O)OCC3 (racemic) [Etodolac, (R,S)-2-[1,8-diethyl-1,3,4-tetrahydropyrano [3,4-b]indol-1-yl]acetic acid] | – | –
